Key:
[1] = system: OCI-LY3 IL6; assay: MALT-1 Cell IL-6 AlphaLISA Assay; assay type: cell-based; settings: Homo sapiens; OCI-LY3 cells, 48 hours incubation; read-out: OCI-LY3 IL6 48 hour Inhibition EC50
Method: The following MALT-1 Cell Interleukin-6 (IL-6) AlphaLISA assay was conducted using a Perkin Elmer® IL-6 AlphaLISA® detection kit (PE AL223). The IL-6 detection assay is a homogeneous immunoassay that detects human IL-6 present in the cell culture medium in the MALT-1 dependent human ABC-DLBCL cell line, OCI-LY3. Compounds were pre-dispensed into Black 384w microtiter plates (Greiner, 781090) from 30 μM to 1.5 nM. Viable OCI-LY3 cells were then seeded on top of compounds at a seeding density of 50,000 cells/mL. Plates were then placed into 37° C. incubators for 48 hours. After 48 hours incubation, 2 μL of cell medium from each well was transferred into white ProxiPlates™ (PE 6008289). A fresh mix of AlphaLISA Acceptor beads (10 μg/mL) and Biotinylated IL-6 Antibody (1 nM) was made in AlphaLISA Immunoassay buffer and added to all wells (4 μL). The plates were incubated for 60 minutes at room temperature. Streptavidin donor beads (40 μg/mL) were prepared using the assay buffer and added to all wells (5 The plates were incubated for 30 minutes at room temperature and read using PE EnVision® reader. Results are shown in Table 3.

[2] = biological target: human MALT-1 protein (Homo sapiens (Human), UniProt Q9UDY8); assay: MALT-1 Biochemical Assay (Quench-FRET enzyme assay); settings: human MALT-1 6 nM, substrate 2 μM, 40 min preincubation
Description: A Quenched Fluorescence Resonance Energy Transfer (Quench-FRET) enzyme assay was used to test the ability of exemplary MALT-1 inhibitors Example 1 to Example 39 to inhibit the cleavage of a MALT1 specific quenched fluorescent substrate of sequence [TAMRA-PEG2-Leu-Val-Ser-Arg-Gly-Ala-Ala-Ser-PEG2-K(QSY7) by human MALT-1 protein; where TAMRA is 6-carboxytetramethylrhodamine, PEG2 is 2-(2-(2-aminoethoxy)ethoxyamide linker, QSY7 is a non-fluorescent quenching dye (Thermo-Fisher catalog #Q10193). The assay was performed by pre-dispensing compounds into 384 well Proxiplates™ (PE 6008289). Human MALT-1 (6 nM) was prepared using the assay buffer (25 mM HEPES pH 7.5, 1 mM ethylenediaminetetraacetic acid, 0.8 M sodium citrate, 0.005% Bovine serum albumin (BSA), 2 mM dithiothreitol (DTT)) and added to the compound plates. The plates were incubated 40 minutes at room temperature. The reaction was carried out by adding the substrate (2 μM) to the plates and incubating for 60 minutes at room temperature. A fluorescence readout was then measured using a PE EnVision® reader (Ex.535/Em.590). […] EC50 is defined as the half maximal effective concentration of compound to inhibit MALT-1 protease activity.

[3] = system: male Sprague-Dawley rats; assay: Cardiovascular Assay in anesthetized rats; assay type: in vivo; settings: rat; for HR (%) / MAP (%) / dP/dt@50 (%): change from vehicle; for Drug (μg/mL SEM): plasma at end of infusion
Method: The following cardiovascular assay was conducted using male Sprague-Dawley rats that were anesthetized with Inactin (thiobutabarbital), instrumented (catheterized both femoral artery and vein; catheterize left ventricular) and allowed to stabilize. Following a 30-minute baseline period, each compound was infused at low, medium, and high doses/30 minutes. Plasma samples were taken at the end of each dose infusion. If, at any point, the mean arterial pressure (MAP) of an animal decreased below 70 mmHg, the infusion was immediately stopped, a final blood sample was taken, and hemodynamic data for that animal was removed from the group average for all subsequent time points. A 15% change from vehicle for MAP or heart rate (HR), respectively, is considered biologically relevant. A 20% change from vehicle for dP/dt@50 is considered biologically relevant.

human MALT-1 protein, sequence (Q9UDY8 whole entry): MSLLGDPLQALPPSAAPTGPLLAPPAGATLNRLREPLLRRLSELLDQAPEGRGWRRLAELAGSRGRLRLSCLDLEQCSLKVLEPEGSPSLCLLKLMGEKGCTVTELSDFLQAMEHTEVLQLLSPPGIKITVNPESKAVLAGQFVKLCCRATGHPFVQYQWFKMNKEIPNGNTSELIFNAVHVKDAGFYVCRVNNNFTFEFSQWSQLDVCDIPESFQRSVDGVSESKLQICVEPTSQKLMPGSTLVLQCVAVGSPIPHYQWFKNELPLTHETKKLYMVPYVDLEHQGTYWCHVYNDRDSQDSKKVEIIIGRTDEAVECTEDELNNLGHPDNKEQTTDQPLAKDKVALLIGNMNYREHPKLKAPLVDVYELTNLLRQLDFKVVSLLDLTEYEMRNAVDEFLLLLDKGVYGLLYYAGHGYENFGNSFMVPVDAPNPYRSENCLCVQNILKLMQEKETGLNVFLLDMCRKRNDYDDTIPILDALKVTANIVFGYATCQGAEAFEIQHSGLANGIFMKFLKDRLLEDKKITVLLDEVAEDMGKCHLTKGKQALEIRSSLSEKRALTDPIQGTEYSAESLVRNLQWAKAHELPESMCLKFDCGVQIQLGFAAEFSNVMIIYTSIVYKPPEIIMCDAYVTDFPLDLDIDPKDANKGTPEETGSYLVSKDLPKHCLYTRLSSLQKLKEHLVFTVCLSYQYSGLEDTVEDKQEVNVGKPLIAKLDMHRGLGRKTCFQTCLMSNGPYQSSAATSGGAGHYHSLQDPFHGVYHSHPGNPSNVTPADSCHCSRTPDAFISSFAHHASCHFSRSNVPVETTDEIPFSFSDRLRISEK

SMILES	EC50 [1] [nM]	EC50 [2] [nM]	HR (%) ([3]; dose 3 mg/kg)	MAP (%) ([3]; dose 3 mg/kg)	dP/dt@50 (%) ([3]; dose 3 mg/kg)	HR (%) ([3]; dose 10 mg/kg)	MAP (%) ([3]; dose 10 mg/kg)	dP/dt@50 (%) ([3]; dose 10 mg/kg)	HR (%) ([3]; dose 30 mg/kg)	MAP (%) ([3]; dose 30 mg/kg)	dP/dt@50 (%) ([3]; dose 30 mg/kg)	Drug (μg/mL SEM) ([3]; dose 3 mg/kg) [µg/mL]	Drug (μg/mL SEM) ([3]; dose 10 mg/kg) [µg/mL]	Drug (μg/mL SEM) ([3]; dose 30 mg/kg) [µg/mL]
CO[C@H](c1c(Nc2ccc([C@H](N(C)C(=O)C3CCS(=O)(=O)CC3)C(F)(F)F)cc2F)cnc2sc(C)nc12)C(F)F (single isomer, unassigned) [Example 17]	580	92	–	–	–	–	–	–	–	–	–	–	–	–
CO[C@@H](C)c1c(Nc2ccc([C@H](N(C)C(=O)C3CCS(=O)(=O)CC3)C(F)(F)F)cc2)cnc2cc(Cl)nn12 [Comparative Example A, N-{(1S)-1-[4-({2-chloro-7-[(1 S)-1-methoxyethyl]pyrazolo [1,5-a]pyrimidin-6-yl}amino)phenyl]-2,2,2-trifluoroethyl}-N-methyl-1,1-dioxo-1λ^6-thiane-4-carboxamide, reference compound]	–	–	−7	−10	−4	−11	−14	−7	−18	−22	−6	1.45 ± 0.06	5.15 ± 0.32	12.91 ± 1.71
Cc1nc2c(C(C)C(F)F)c(Nc3ccc([C@H](N(C)C(=O)C4CCS(=O)(=O)CC4)C(F)(F)F)cc3)cnc2s1 (stereo partly drawn) [Example 16, N-R[(1S)-1-(4-{ [7-(1,1-difluoropropan-2-yl)-2-methyl[1,3]thiazolo[5,4-b]pyridin-6-yl]amino}phenyl)-2,2,2-trifluoroethyl]-N-methyl-1,1-dioxo-1λ^6-thiane-4-carboxamide]	470	106	–	–	–	–	–	–	–	–	–	–	–	–

Reference: patent US20230312601A1, “THIAZOLO[5,4-B]PYRIDINE MALT-1 INHIBITORS” (AbbVie Inc., priority 2022, published 2023)
